The values below come from patent US20220259193A1, “KCNT1 INHIBITORS AND METHODS OF USE” (Praxis Precision Medicines, Inc., priority 2019, published 2022).

Molecules are shown by their SMILES. Bounds are passed on as bounds.

The target in the test is T1, KCNT1 (KNa1.1, Slack) (Homo sapiens, UniProt Q5JUK3).
T1 construct: expressed in transfected cells; host or cells: HEK-TREX (tetracycline-inducible HEK cell line)
T1 sequence (Q5JUK3 1-1230): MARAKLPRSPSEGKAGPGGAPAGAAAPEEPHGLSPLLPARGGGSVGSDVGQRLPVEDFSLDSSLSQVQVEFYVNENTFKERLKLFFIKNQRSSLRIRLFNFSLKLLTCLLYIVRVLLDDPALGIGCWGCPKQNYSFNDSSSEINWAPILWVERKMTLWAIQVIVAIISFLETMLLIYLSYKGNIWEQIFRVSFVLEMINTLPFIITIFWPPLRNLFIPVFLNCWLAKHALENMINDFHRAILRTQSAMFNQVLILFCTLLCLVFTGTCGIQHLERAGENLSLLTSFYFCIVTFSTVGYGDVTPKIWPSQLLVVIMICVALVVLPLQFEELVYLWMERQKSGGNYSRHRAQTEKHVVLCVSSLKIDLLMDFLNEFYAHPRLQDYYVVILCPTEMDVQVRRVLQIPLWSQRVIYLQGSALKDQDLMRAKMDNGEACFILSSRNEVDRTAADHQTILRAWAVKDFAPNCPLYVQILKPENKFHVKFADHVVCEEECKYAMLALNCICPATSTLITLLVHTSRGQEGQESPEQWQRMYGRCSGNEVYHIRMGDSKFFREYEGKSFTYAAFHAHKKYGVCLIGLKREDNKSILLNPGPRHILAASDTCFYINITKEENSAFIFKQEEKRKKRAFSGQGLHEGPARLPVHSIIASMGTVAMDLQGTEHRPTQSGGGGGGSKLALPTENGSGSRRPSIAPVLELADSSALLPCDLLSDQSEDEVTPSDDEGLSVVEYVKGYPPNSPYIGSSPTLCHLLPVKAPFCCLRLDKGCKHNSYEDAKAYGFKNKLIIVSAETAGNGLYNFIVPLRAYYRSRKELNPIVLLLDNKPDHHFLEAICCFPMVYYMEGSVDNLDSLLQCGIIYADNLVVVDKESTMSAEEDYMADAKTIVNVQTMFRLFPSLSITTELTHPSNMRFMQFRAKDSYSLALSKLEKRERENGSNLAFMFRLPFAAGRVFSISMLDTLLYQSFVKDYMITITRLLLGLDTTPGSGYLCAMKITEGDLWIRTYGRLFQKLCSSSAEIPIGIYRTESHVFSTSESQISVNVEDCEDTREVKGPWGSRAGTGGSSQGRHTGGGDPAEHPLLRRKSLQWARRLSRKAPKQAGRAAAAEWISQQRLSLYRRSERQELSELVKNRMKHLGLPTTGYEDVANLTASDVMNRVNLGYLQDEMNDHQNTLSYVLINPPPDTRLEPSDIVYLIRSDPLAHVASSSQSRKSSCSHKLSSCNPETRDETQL
The experiment in a line: KCNT1 patch clamp assay (SyncroPatch 384PE automated patch clamp). The class given is cell-based. As to conditions: tetracycline inducible HEK-TREX cell line; perforated patch; step from −80 mV to 0 mV; room temperature; read-out: KCNT1-WT IC50. The method, then: KCNT1—Patch Clamp Assay Inhibition of KCNT1 (KNa1.1, Slack) was evaluated using a tetracycline inducible cell line (HEK-TREX). Currents were recorded using the SyncroPatch 384PE automated, patch clamp system. Pulse generation and data collection were performed with PatchController384 V1.3.0 and DataController384 V1.2.1 (Nanion Technologies). The access resistance and apparent membrane capacitance were estimated using built-in protocols. Current were recorded in perforated patch mode (10 μM escin) from a population of cells. […] The cells were allowed to recover in the cell hotel prior to experimentation. Currents were recorded at room temperature. […] The extracellular solution was used as the wash, reference and compound delivery solution. […] Escin is made at a 5 mM stock in water, aliquoted, and stored at −20° C. The compound plate was created at 2× concentrated in the extracellular solution. The compound was diluted to 1:2 when added to the recording well. The amount of DMSO in the extracellular solution was held constant at the level used for the highest tested concentration. A holding potential of −80 mV with a 100 ms step to 0 mV was used. […] The average mean current from 3 sweeps was calculated and the % inhibition of each compound was calculated. The % Inhibition as a function of the compound concentration was fit with a Hill equation to derive IC50, slope, min and max parameters.
A word on the IC50: it is the concentration that inhibits the measured activity by half. As to `C[C@H](NC(=O)OC(C)(C)C)c1nc(-c2ccnc(OC3CC(F)(F)C3)c2)no1` [Compound 293, tert-butyl (S)-(1-(3-(2-(3,3-difluorocyclobutoxy)pyridin-4-yl)-1,2,4-oxadiazol-5-yl)ethyl)carbamate], the IC50 was at least 20 µM.

With `CCOCc1cc(-c2noc([C@H](C)NC(=O)c3cc(C(F)(F)F)nn3C)n2)ccn1` [Compound 245, (S)—N-(1-(3-(2-(ethoxymethyl)pyridin-4-yl)-1,2,4-oxadiazol-5-yl)ethyl)-1-methyl-3-(trifluoromethyl)-1H-pyrazole-5-carboxamide], the IC50 was 1 to 20 µM. With `C[C@H](NC(=O)c1cc(C(F)F)nn1C(F)F)c1nc(-c2cccc(F)c2)no1` [Compound 130], the IC50 was at most 1 µM. Take `COC(=O)CC(NC(=O)c1cc(C(F)(F)F)nn1C)c1nc(-c2cccc(F)c2)no1` (single isomer, unassigned) [Compound 126, methyl 3-[3-(3-fluorophenyl)-1,2,4-oxadiazol-5-yl]-3-[[2-methyl-5-(trifluoromethyl)pyrazole-3-carbonyl]amino]propanoate]: the half-maximal inhibitory concentration (IC50) is at most 1 µM. For the compound `COc1cccc(-c2noc([C@H](C)NC(=O)OC(C)(C)C)n2)c1` [Compound 283, tert-butyl (S)-(1-(3-(3-methoxyphenyl)-1,2,4-oxadiazol-5-yl)ethyl)carbamate], the half-maximal inhibitory concentration (IC50) is 1 to 20 µM.

`CC(=O)NC[C@H](NC(=O)c1cc(C(F)(F)F)nn1C)c1nc(-c2cccc(F)c2)no1` [Compound 134]: the IC50 was at least 20 µM. `C[C@H](NC(=O)c1cc(-c2ccc(F)cc2)nn1C)c1nc(-c2ccnc(C3CC3)c2)no1` [Compound 228, (S)—N-(1-(3-(2-cyclopropylpyridin-4-yl)-1,2,4-oxadiazol-5-yl)ethyl)-3-(4-fluorophenyl)-1-methyl-1H-pyrazole-5-carboxamide]: the IC50 was at most 1 µM. On to `C[C@H](NC(=O)c1cc(C(F)(F)F)nn1C)c1nc(-c2ccc(F)c(F)c2)no1` (single isomer, unassigned) [Compound 77], for which the IC50 is at most 1 µM. As for `CC[C@H](NC(=O)c1cc(C(F)(F)F)nn1C1CC1)c1nc(-c2cccc(F)c2)no1` [Compound 113], the IC50 was at most 1 µM. The figure for `Cn1nc(C2CC2)cc1C(=O)N[C@@H](c1nc(-c2cccc(F)c2)no1)C1CC1` (single isomer, unassigned) [Compound 108] is at most 1 µM; for `C[C@H](NC(=O)OC1CCCC1)c1nc(-c2ccnc(C3CC3)c2)no1` [Compound 276] it is at most 1 µM. Regarding `Cn1nc(C2CC2)cc1C(=O)NC(c1ccccc1)c1nc(-c2cccc(F)c2)no1` (stereo not shown) [Compound 51], the IC50 lay within 1 to 20 µM. Take `CC[C@H](NC(=O)c1cc(C)nn1-c1cccnc1)c1nc(-c2ccnc(C)c2)no1` [Compound 231, (S)-3-methyl-N-(1-(3-(2-methylpyridin-4-yl)-1,2,4-oxadiazol-5-yl)propyl)-1-(pyridin-3-yl)-1H-pyrazole-5-carboxamide]: the IC50 was 1 to 20 µM. Turning to `Cc1nn(C(C)C)cc1C(=O)N[C@@H](C)c1nc(-c2cc(F)cc(F)c2)no1` [Compound 92], the concentration for half-maximal inhibition (IC50) was at most 1 µM. As for `C[C@H](NC(=O)OC(C)(C)C)c1nc(-c2cccc(F)c2)no1` [Compound 281, tert-butyl N-[(1S)-1-[3-(3-fluorophenyl)-1,2,4-oxadiazol-5-yl]ethyl]carbamate], the IC50 lay in the range of 1 to 20 µM. Take `CC(NC(=O)c1cc(C(F)(F)F)nn1C)c1nc(-c2cccc(C(=O)O)c2)no1` (stereo not shown) [Compound 182, 3-(5-(1-(1-methyl-3-(trifluoromethyl)-1H-pyrazole-5-carboxamido)ethyl)-1,2,4-oxadiazol-3-yl)benzoic Acid]: the half-maximal inhibitory concentration (IC50) was at least 20 µM.

Consider `COC(=O)NCC(NC(=O)c1cc(C(F)(F)F)nn1C)c1nc(-c2cccc(F)c2)no1` (stereo not shown) [Compound 168], for which the IC50 lay in the range of 1 to 20 µM. On to `CC(NC(=O)c1cc(C(F)(F)F)nn1C)c1nc(-c2cccc(O)c2)no1` (stereo not shown) [Compound 186, N-(1-(3-(3-hydroxyphenyl)-1,2,4-oxadiazol-5-yl)ethyl)-1-methyl-3-(trifluoromethyl)-1H-pyrazole-5-carboxamide], for which the 50% inhibitory concentration (IC50) lay within 1 to 20 µM.

Turning to `C[C@H](NC(=O)c1ccnn1Cc1ccccc1)c1nc(-c2ccnc(C3CC3)c2)no1` [Compound 280, (S)-1-benzyl-N-(1-(3-(2-cyclopropylpyridin-4-yl)-1,2,4-oxadiazol-5-yl)ethyl)-1H-pyrazole-5-carboxamide], the 50% inhibitory concentration (IC50) was at most 1 µM. The figure for `Cc1nn(C(C)C)cc1C(=O)NC(C)c1nc(-c2ccc(OC(F)(F)F)cc2)no1` (stereo not shown) [Compound 99] is 1 to 20 µM; for `Cc1nn(C)c(C(=O)N[C@@H](C)c2nc(-c3ccnc(C(F)(F)F)c3)no2)c1C` [Compound 244] it is 1 to 20 µM; for `CN(C)C(=O)C[C@H](NC(=O)c1cc(C(F)(F)F)nn1C)c1nc(-c2cccc(F)c2)no1` (single isomer, unassigned) [Compound 136] it is 1 to 20 µM. For `Cc1nn(C(C)C)cc1C(=O)N[C@@H](C)c1nc(-c2cccc(OC(F)(F)F)c2)no1` [Compound 100], the IC50 was in the range of 1 to 20 µM. In the case of `Cc1nn(C(C)C)cc1C(=O)N[C@@H](C)c1nc(-c2cccc(C(F)(F)F)c2)no1` [Compound 89], the half-maximal inhibitory concentration (IC50) was at most 1 µM. As to `COCc1cc(-c2noc([C@H](C)NC(=O)OC(C)(C)C)n2)ccn1` [Compound 289, tert-butyl (S)-(1-(3-(2-(methoxymethyl)pyridin-4-yl)-1,2,4-oxadiazol-5-yl)ethyl)carbamate], the concentration for half-maximal inhibition (IC50) was at least 20 µM.

Take `Cn1nc(C(F)(F)F)cc1C(=O)NC(CN)c1nc(-c2cccc(F)c2)no1` (stereo not shown) [Compound 167, N-[2-amino-1-[3-(3-fluorophenyl)-1,2,4-oxadiazol-5-yl]ethyl]-2-methyl-5-(trifluoromethyl)pyrazole-3-carboxamide]: the IC50 lay within 1 to 20 µM. With `Cn1nc(C(F)(F)F)cc1C(=O)NC1(c2nc(-c3cccc(F)c3)no2)CCOC1` (stereo not shown) [Compound 149], the 50% inhibitory concentration (IC50) is at most 1 µM. Consider `CO[C@@H](C)[C@H](NC(=O)c1cc(C(F)(F)F)nn1C)c1nc(-c2cccc(F)c2)no1` [Compound 142], for which the IC50 was 1 to 20 µM. `Cc1cccc(-c2noc(C(C)NC(=O)c3cc(C(C)C)nn3C)n2)c1` (stereo not shown) [Compound 10]: the concentration for half-maximal inhibition (IC50) was at most 1 µM. On to `Cc1nn(C(C)C)cc1C(=O)N[C@@H](C)c1nc(-c2ccc(F)c(F)c2)no1` [Compound 87], for which the IC50 was in the range of 1 to 20 µM.

Consider `C[C@H](NC(=O)c1cc(C(F)(F)F)nn1C)c1nc(-c2ccnc(C(F)(F)F)n2)no1` [Compound 242, (S)-1-methyl-3-(trifluoromethyl)-N-(1-(3-(2-(trifluoromethyl)pyrimidin-4-yl)-1,2,4-oxadiazol-5-yl)ethyl)-1H-pyrazole-5-carboxamide], for which the half-maximal inhibitory concentration (IC50) was in the range of 1 to 20 µM. In the case of `CO[C@H](C)[C@H](NC(=O)c1cc(C(F)(F)F)nn1C)c1nc(-c2cccc(F)c2)no1` [Compound 131], the half-maximal inhibitory concentration (IC50) was 1 to 20 µM. Consider `CN(C)C(=O)C[C@@H](NC(=O)c1cc(C(F)(F)F)nn1C)c1nc(-c2cccc(F)c2)no1` (single isomer, unassigned) [Compound 135], for which the IC50 was 1 to 20 µM. Take `C[C@H](NC(=O)OC(C)(C)C)c1nc(-c2ccnc(OC3CC3)c2)no1` [Compound 292, tert-butyl (S)-(1-(3-(2-cyclopropoxypyridin-4-yl)-1,2,4-oxadiazol-5-yl)ethyl)carbamate]: the half-inhibitory concentration (IC50) is 1 to 20 µM.
